Among the data in patent US20240368163A1, “COMPOUNDS AND METHODS FOR MODULATING SPLICING” (REMIX THERAPEUTICS INC., priority 2021, published 2024) are IC50 and AC50 values, retold here.

Holding throughout (type): cell-based, human
For assay [1], the system named is HTT. The assay can be described thus: HiBiT protein abundance assay, HTT. The conditions noted are these: modified K562 cells. On the procedure:
(§1) Compounds described herein were used to screen for effects on quantitative protein abundance using a HiBit assay system (Promega). Quantitative protein abundance was determined by measuring the protein levels of HiBit-tagged protein targets expressed in cell culture via luminescence using the Nano-Glo HiBiT Lytic Detection System, which uses a split complementation assay format to reconstitute NanoBiT enzyme to generate a luminescent signal. A protein abundance assay was developed such that endogenous protein targets could be modified with the HiBiT peptide tag and their abundance could be assessed after compound treatment. Briefly, K562 cell lines containing a HiBiT-modification were treated with various compounds described herein (e.g., compounds of Formulas (I), (II), or (III)). After treatment for 24 hours, the protein abundance of a specific target was determined by measuring luminescence.
(§2) Cells were maintained in IMIDM with 10% FBS. Before the assay, cells were diluted with […] growth media (IMIDM+[…] media) and were seeded in a 384-well plate at a density of 10000 cells/well (for each cell line listed in Table 12). Each compound was prepared as a 10-point 3-fold serial dilution in DMSO with the top dose at a final concentration of 10 μM in the well. Unmodified K562 cells were added at the previously specified density with DMSO to serve as an assay baseline and positive control (PC) and DMSO only with the respective modified cell lines was added to the negative control (NC) columns. Final DMSO concentration was kept at or below 0.25%. Treated cell plates were placed in an incubator at 37° C. with 5% CO2 for 24 hours. After 24 hours, 25 μL of Complete HiBit Lytic reagent was added to each well at room temperature (e.g. one plate requiring 10 mL Lytic Buffer, 100 μL LgBiT Protein, 200 μL Lytic Substrate), shaken for 5 minutes at 600 RPM, then left to sit for 10 minutes for signal to stabilize before reading on a Spark Cyto plate reader (Tecan) with a 500 ms measurement time.
(§3) To determine compound effects on protein abundance of each target in Table 12, the percent response for each respective cell line was calculated at each compound concentration as follows:
(§4) For the normalized response at each concentration, a four-parameter logistical regression was fit to the data and the response was interpolated at the 50% value to determine a concentration for protein abundance at 50% (IC50) the untreated control.
A general note: HiBiT is a short tag that completes a luciferase, so light tracks the accessible tagged protein.

For assay [2], the system named is Target C. The assay is described as follows: HiBiT protein abundance assay, Target C. The conditions noted are these: Homo sapiens, K562, 24 h, modified K562 cells. The procedure: • Promega Nano-Glo HiBiT Lytic Detection System (cat #N3030) • Coming 384-well TC-treated microplates (cat #3570) • Synthego Engineered Cells Knock-In Clones
as §2, §3, §4

The test system of assay [3] is MYB. The assay is described as follows: HiBiT protein abundance assay, MYB. The conditions noted are these: Homo sapiens, K562, 24 h, modified K562 cells. The procedure:
as §1, §2, §3, §4

Assay [4] concerns MYB. The assay can be described thus: Splicing RT-qPCR assay, MYB mRNA canonical junction (CJ) and alternative junction (AJ). The conditions noted are these: for AC50: increase in AJ mRNA. On the procedure: Compounds described herein were used to modulate RNA transcript abundance in cells. The expression of a target mRNA was measured by detecting the formation of an exon-exon junction in the canonical transcript (CJ). A compound mediated exon-inclusion event was detected by observing an increase in formation of a new junction with an alternative exon (AJ). Real-time qPCR assays were used to detect these splicing switches and interrogate the potency of various compounds towards different target genes. A high-throughput real time quantitative PCR (RT-qPCR) assay was developed to measure these two isoforms of the mRNA (CJ and AJ) for exemplary genes, such as HTT, SMN2, and MYB, together with a control housekeeping gene, GAPDH or GUSB or PPIA, used for normalization. Briefly, the A673 or K562 cell line was treated with various compounds described herein (e.g., compounds of Formula (I)). After treatment, the levels of the HTT, MYB, or SMN2 mRNA targets were determined from each sample of cell lysate by cDNA synthesis followed by qPCR.
The A673 cell line was cultured in DMEM with 10% FBS. Cells were diluted with full growth media and plated in a 96-well plate (15,000 cells in 100 ul media per well). The plate was incubated at 37° C. with 5% CO2 for 24 hours to allow cells to adhere. An 11-point 3-fold serial dilution of the compounds was made in DMSO then diluted in media in an intermediate plate. Compounds were transferred from the intermediate plate to the cell plate with the top dose at a final concentration of 10 uM in the well. Final DMSO concentration was kept at or below 0.25%. The cell plate was returned to the incubator at 37° C. with 5% CO2 for an additional 24 hours.
The K562 cell line was cultured in IMDM with 10% FBS. For K562, cells were diluted with full growth media and plated in either a 96-well plate (50,000 cells in 50 uL media per well) or a 384-well plate (8,000-40,000 cells in 45 uL media per well). An 11-point 3-fold serial dilution of the compounds were made in DMSO then diluted in media in an intermediate plate. Compound was transferred from the intermediate plate to the cell plate with the top dose at a final concentration of 10 uM in the well. Final DMSO concentration was kept at or below 0.25%. Final volume was 100 uL for 96-well plate and 50 uL for 384-well plate. The cell plate was then placed in an incubator at 37° C. with 5% CO2 for 24 hours.
The cells were then gently washed with 50 uL-100 uL cold PBS before proceeding to addition of lysis buffer. 30 uL-50 μL of room temperature lysis buffer with DNAse I (and optionally RNAsin) was added to each well. Cells were shaken/mixed thoroughly at room temperature for 5-10 minutes for lysis to take place and then 3 uL-5 μL of room temperature stop solution was added and wells were shaken/mixed again. After 2-5 minutes, the cell lysate plate was transferred to ice for RT-qPCR reaction setup. The lysates could also be frozen at −80° C. for later use.
In some cases, a direct lysis buffer was used. An appropriate volume of 3× lysis buffer (10 mM Tris, 150 mM NaCl, 1.5%-2.5% Igepal and 0.1-1 U/uL RNAsin, pH 7.4) was directly added to either K562 or A673 cells in media and mixed by pipetting 3 times. The plates were then incubated at room temperature with shaking/rocking for 20-50 minutes to allow for lysis to take place. After this time, the cell lysate plate was transferred to ice to set up for the RT-qPCR reactions. The lysates could also be frozen at −80° C. for later use.
To set up 10 uL RT-qPCR reactions, cell lysates were transferred to 384-well qPCR plates containing the master mix according to the table below. The plates were sealed, gently vortexed, and spun down before the run. The volumes were adjusted accordingly in some instances where the reaction was carried in 20 μL. The table below summarizes the components of the RT-qPCR reactions:
The RT-qPCR reaction was performed using a QuantStudio (ThermoFisher) under the following fast cycling conditions. […]
In general terms: Real-time PCR tracks product formation cycle by cycle.

Where [5] appears, read: Homo sapiens, K562, 24 h, Table 13A.
The mark [6] stands for this setting: Homo sapiens, 24 h, decrease in CJ mRNA, A673 or K562 cells, 24 hours treatment, RT-qPCR, read-out: MYB CJ IC50.
Where [7] appears, read: Homo sapiens, 24 h, A673 or K562 cells, 24 hours treatment, RT-qPCR.
[8] abbreviates: Homo sapiens, RT-qPCR panel, canonical junction mRNA, compound concentration having 50% response in CJ decrease, read-out: MYB IC50 (decrease in CJ mRNA levels).
[9] abbreviates: Homo sapiens, K562, 24 h, Table 13B.

For orientation: IC50 means the concentration needed to halve the response being measured. `C[C@@H]1C[C@H](N(C)c2ccc(-c3ccc(-c4cn[nH]c4)c4cn[nH]c34)nn2)CCN1` [Compound 101]: the IC50 in assay [1] (setting [5]), in assay [2] (Table 13A) and in assay [3] (Table 13A) was 1000 to 10000 nM each time.
On to `C[C@@H]1C[C@H](N(C)c2ccc(-c3ccc(-n4cccn4)c4cn[nH]c34)nn2)CCN1` [Compound 103], for which the IC50 in assay [1] (setting [5]), in assay [2] (Table 13A) and in assay [3] (Table 13A) was 1000 to 10000 nM throughout.
Turning to `C[C@@H]1C[C@@H](N(C)c2ccc(-c3ccc(-c4cn[nH]c4)c4cc[nH]c34)nn2)CCN1` [Compound 107], the IC50 in assay [1] (setting [5]), in assay [2] (Table 13A) and in assay [3] (Table 13A) was 1000 to 10000 nM each time.
In general, AC50 refers to the concentration giving half of the maximal activity seen. Read a high AC50 as weaker potency. Consider `C[C@H]1C[C@@H](N(C)c2ccc(-c3ccc(-c4cn[nH]c4)c4cc[nH]c34)nn2)CCN1` [Compound 108], for which the IC50 in assay [1] (setting [5]), in assay [4] (setting [6]), in assay [4] (setting [8]), in assay [2] (Table 13A) and in assay [3] (Table 13A) was greater than 10000 nM each time. This compound also yielded an AC50 in assay [4] (setting [7]) greater than 10000 nM.
`C[C@@H]1C[C@@H](N(C)c2ccc(-c3ccc(-n4cccn4)c4cc[nH]c34)nn2)CCN1` [Compound 110]: the IC50 in assay [1] (setting [5]), in assay [2] (Table 13A) and in assay [3] (Table 13A) was 1000 to 10000 nM each time.
Turning to `CN(c1ccc(-c2ccc(-c3cn[nH]c3)c3cc[nH]c23)nn1)[C@@H]1C[C@H]2CC[C@@H](C1)N2` [Compound 112], the 50% inhibitory concentration (IC50) in assay [1] (setting [5]), in assay [4] (setting [6]), in assay [4] (setting [8]), in assay [2] (Table 13A) and in assay [3] (Table 13A) was 1000 to 10000 nM throughout. Further, the AC50 in assay [4] (setting [7]) lay within 1000 to 10000 nM.
Consider `CN(c1ccc(-c2ccc(-c3cn[nH]c3)c3c2NC(=O)C3)nn1)[C@@H]1C[C@H]2CC[C@@H](C1)N2` [Compound 123], for which the IC50 in assay [1] (setting [5]), in assay [2] (Table 13A) and in assay [3] (Table 13A) was greater than 10000 nM each time.
`CC1(C)CC(Oc2ccc(-c3ccc(-n4cccn4)c4cn[nH]c34)nn2)CC(C)(C)N1` [Compound 151]: the IC50 in assay [1] (setting [5]), in assay [2] (Table 13A) and in assay [3] (Table 13A) was 100 to 1000 nM throughout.
With `c1cnn(-c2ccc(-c3ccc(O[C@@H]4C[C@H]5CC[C@@H](C4)N5)nn3)c3[nH]ncc23)c1` [Compound 152], the figures for the IC50 in assay [1] (setting [5]), in assay [2] (Table 13A) and in assay [3] (Table 13A) were less than 100 nM, less than 100 nM and 100 to 1000 nM, respectively.
Take `CN(c1ccc(-c2ccc(-c3cn[nH]c3)c3nc[nH]c23)nn1)[C@@H]1C[C@H]2CC[C@@H](C1)N2` [Compound 163]: the IC50 in assay [1] (setting [5]), in assay [2] (Table 13A) and in assay [3] (Table 13A) was greater than 10000 nM each time.
For the compound `CN(c1ccc(-c2ccc(-c3cn(C)nn3)c3cn[nH]c23)nn1)[C@@H]1C[C@H]2CC[C@@H](C1)N2` [Compound 165], the IC50 in assay [1] (setting [5]), in assay [2] (Table 13A) and in assay [3] (Table 13A) was 1000 to 10000 nM in each case.
On to `c1nc2c(-c3cn[nH]c3)ccc(-c3ccc(O[C@@H]4C[C@H]5CCC[C@@H](C4)N5)nn3)c2s1` [Compound 209], for which the values for the IC50 in assay [1] (setting [5]), in assay [2] (Table 13A) and in assay [3] (Table 13A) were less than 100 nM, less than 100 nM and 100 to 1000 nM, respectively.
For the compound `c1nc2c(-c3cn[nH]c3)ccc(-c3ccc(N4C[C@H]5CNC[C@H]5C4)nn3)c2s1` [Compound 282], the IC50 in assay [1] (setting [5]) is 1000 to 10000 nM; in assay [2] (Table 13A) it was greater than 10000 nM; in assay [3] (Table 13A) it was 1000 to 10000 nM.
As to `[2H]C([2H])([2H])N(c1ccc(-c2ccc(-c3cn[nH]c3)c3cn[nH]c23)nn1)[C@@H]1C[C@H]2CC[C@@H](C1)N2` [Compound 299], the IC50 in assay [1] (setting [5]), in assay [2] (Table 13A) and in assay [3] (Table 13A) was less than 100 nM throughout.
Turning to `Cc1cc(-c2ccc(-c3ccc(N(C)[C@@H]4C[C@H]5CC[C@@H](C4)N5)nn3)c3[nH]ncc23)cnn1` [Compound 383, (exo)-N-methyl-N-{6-[4-(6-methylpyridazin-4-yl)-1H-indazol-7-yl]pyridazin-3-yl}-8-azabicyclo[3.2.1]octan-3-amine], the IC50 in assay [1] (setting [5]), in assay [2] (Table 13A) and in assay [3] (Table 13A) was 1000 to 10000 nM throughout.
For `c1nc2c(-c3cn[nH]c3)ccc(-c3ccc(N(C4CC4)[C@@H]4C[C@H]5CC[C@@H](C4)N5)nn3)c2s1` [Compound 389, (exo)-N-cyclopropyl-N-{6-[4-(1H-pyrazol-4-yl)-1,3-benzothiazol-7-yl]pyridazin-3-yl}-8-azabicyclo [3.2.1] octan-3-amine], the IC50 is 100 to 1000 nM in assay [1] (setting [5]), less than 100 nM in assay [2] (Table 13A) and 100 to 1000 nM in assay [3] (Table 13A).
As for `c1nc2c(-c3cn[nH]c3)ccc(-c3cnc(N4CCN[C@H](C5CC5)C4)nn3)c2s1` [Compound 553], the IC50 was in the range of 1000 to 10000 nM in assay [1] (Table 13A, 24 hours) and 1000 to 10000 nM in assay [4] (RT-qPCR panel, canonical junction mRNA, compound concentration having 50% response in CJ decrease, read-out: MYB IC50 (decrease in CJ mRNA levels)).
With `CN(c1ccc(-c2ccc(-c3cn[nH]c3)c(=O)[nH]2)nn1)[C@@H]1C[C@H]2CC[C@@H](C1)N2` [Compound 904], the IC50 in assay [1] (setting [9]), in assay [2] (Table 13B) and in assay [3] (Table 13B) was greater than 10000 nM throughout.
As for `CN(c1ccc(-c2ccc(-n3cccn3)c(=O)[nH]2)nn1)[C@@H]1C[C@H]2CC[C@@H](C1)N2` [Compound 905], the results for the IC50 in assay [1] (setting [9]), in assay [2] (Table 13B) and in assay [3] (Table 13B) were 100 to 1000 nM, 100 to 1000 nM and 1000 to 10000 nM, respectively.
